Measured values taken from ChEMBL document CHEMBL4321870, “Benzophenone Compounds, from a Marine-Derived Strain of the Fungus Pestalotiopsis neglecta, Inhibit Proliferation of Pancreatic Cancer Cells by Targeting the MEK/ERK Pathway” (J Nat Prod, 2019).
Activity calls are given as the source filed them. No cut-off for these calls is given here.

How the values were obtained:
PANC-1 [1] = experiment: Antiproliferative activity against human PANC1 cells incubated for 72 hrs by MTT assay; assay type: functional, cell-based; conditions: PANC-1, 72 h
PANC-1 [2] = experiment: Inhibition of colony formation in human PANC1 cells incubated for 14 days by crystal violet staining based assay; assay type: functional, cell-based
PANC-1 [3] = experiment: Induction of apoptosis in human PANC1 cells assessed as increase in cleaved caspase-3 level incubated for 24 hrs by Western blot analysis; assay type: functional, cell-based
PANC-1 [4] = experiment: Induction of apoptosis in human PANC1 cells assessed as increase in cleaved PARP level incubated for 24 hrs by Western blot analysis; assay type: functional, cell-based
[5] = target: T1, Dual specificity mitogen-activated protein kinase kinase; MEK1/2 (Homo sapiens) (UniProt P36507+Q02750); experiment: Inhibition of MEK1/2 in human PANC1 cells assessed as decrease in phosphorylated levels of MEK at S217/221 at 5 uM incubated for 24 hrs by Western blotting analysis; assay type: cell-based
[6] = target: T1, Dual specificity mitogen-activated protein kinase kinase; MEK1/2 (Homo sapiens); experiment: Inhibition of MEK1/2 in human PANC1 cells assessed as decrease in phosphorylated levels of ERK(T202/Y204) at 5 uM incubated for 24 hrs by Western blotting analysis; assay type: cell-based
[7] = target: T1, Dual specificity mitogen-activated protein kinase kinase; MEK1/2 (Homo sapiens); experiment: Inhibition of MEK1/2 in human PANC1 cells assessed as decrease in phosphorylated levels of ERK(T202/Y204) in nuclear fraction at 5 uM incubated for 24 hrs by Western blotting analysis; assay type: cell-based
A549 = experiment: Antiproliferative activity against human A549 cells incubated for 72 hrs by MTT assay; assay type: functional, cell-based; conditions: A549, 72 h
HCT-116 = experiment: Antiproliferative activity against human HCT116 cells incubated for 72 hrs by MTT assay; assay type: functional, cell-based; conditions: HCT-116, 72 h
[8] = Antiproliferative activity against human MCF cells incubated for 72 hrs by MTT assay; assay type: functional, cell-based
DU-145 = experiment: Antiproliferative activity against human DU145 cells incubated for 72 hrs by MTT assay; assay type: functional, cell-based; conditions: DU-145, 72 h
HepG2 = experiment: Antiproliferative activity against human HepG2 cells incubated for 72 hrs by MTT assay; assay type: functional, cell-based; conditions: HepG2, 72 h
[9] = target: T1, Dual specificity mitogen-activated protein kinase kinase; MEK1/2 (Homo sapiens); conditions: 10 uM
Description: Inhibition of MEK1/2 in human PANC1 cells assessed as decrease in phosphorylated levels of MEK at S217/221 at 10 uM incubated for 24 hrs by Western blotting analysis

T1 sequence (P36507 whole entry, looked up): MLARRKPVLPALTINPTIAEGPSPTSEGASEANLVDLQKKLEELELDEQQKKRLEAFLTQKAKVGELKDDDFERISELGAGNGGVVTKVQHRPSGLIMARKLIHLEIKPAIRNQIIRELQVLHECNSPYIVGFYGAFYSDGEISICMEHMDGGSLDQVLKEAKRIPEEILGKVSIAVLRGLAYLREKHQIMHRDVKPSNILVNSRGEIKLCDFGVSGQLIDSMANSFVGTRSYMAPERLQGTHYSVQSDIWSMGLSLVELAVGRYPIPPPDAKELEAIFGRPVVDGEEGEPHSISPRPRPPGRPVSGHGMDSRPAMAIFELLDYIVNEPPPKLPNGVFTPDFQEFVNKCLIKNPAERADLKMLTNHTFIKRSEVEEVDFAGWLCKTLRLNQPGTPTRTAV
T1 sequence (Q02750 whole entry, looked up): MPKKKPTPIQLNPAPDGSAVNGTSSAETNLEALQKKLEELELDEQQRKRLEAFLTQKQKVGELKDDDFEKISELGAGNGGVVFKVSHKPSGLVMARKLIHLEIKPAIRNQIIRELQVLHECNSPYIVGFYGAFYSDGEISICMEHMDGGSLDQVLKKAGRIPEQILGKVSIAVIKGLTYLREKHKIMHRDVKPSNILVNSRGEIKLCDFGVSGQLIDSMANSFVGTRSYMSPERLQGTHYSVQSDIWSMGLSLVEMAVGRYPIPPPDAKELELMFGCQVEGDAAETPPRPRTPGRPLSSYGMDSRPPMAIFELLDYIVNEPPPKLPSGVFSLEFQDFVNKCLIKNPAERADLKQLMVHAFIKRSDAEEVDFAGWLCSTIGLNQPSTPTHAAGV

CC(C)=CCc1c(O)cc(O)c(C=O)c1C(=O)c1c(O)cc(C)c(Br)c1O
IC50 (PANC-1 [1]): 7.6 µM
inhibition (PANC-1 [2]): Dose-dependent effect
Activity (PANC-1 [3]): Dose-dependent effect
Activity (PANC-1 [4]): Dose-dependent effect
inhibition [5]: Active
inhibition [6]: Active
inhibition [7]: Active

COc1cc(C)c(Cl)c(O)c1C(=O)c1c(C=O)c(O)cc(O)c1CC=C(C)C
IC50 (PANC-1 [1]): 14 µM
IC50 (A549): 14 µM
IC50 (HCT-116): 10 µM
IC50 [8]: 11 µM
IC50 (DU-145): 21 µM
IC50 (HepG2): 37 µM

O=c1[nH]cc(F)c(=O)[nH]1 [FLUOROURACIL]
IC50 (PANC-1 [1]): 15 µM
IC50 [8]: 11 µM
IC50 (DU-145): 2.5 µM
IC50 (HepG2): 2.5 µM

CC(C)=CCc1c(O)cc(O)c(C=O)c1C(=O)c1c(O)cc(C)c(Cl)c1O
IC50 (PANC-1 [1]): 7.2 µM
inhibition (PANC-1 [2]): Dose-dependent effect
Activity (PANC-1 [3]): Dose-dependent effect
Activity (PANC-1 [4]): Dose-dependent effect
inhibition [5]: Active
inhibition [6]: Active
inhibition [7]: Active
IC50 (A549): 7.8 µM
IC50 (HCT-116): 5.5 µM
IC50 [8]: 7.5 µM
IC50 (DU-145): 14 µM
IC50 (HepG2): 23 µM

CC(C)=CCc1c(O)cc(O)c2c1C(=O)c1c(O)c(Cl)c(C)c(Cl)c1OC2 [PESTALACHLORIDE B]
IC50 (PANC-1 [1]): > 50 µM

COc1cccc(-c2cc(=O)c3ccccc3o2)c1N
inhibition [9]: Active

COc1cc(C)c(Br)c(O)c1C(=O)c1c(C=O)c(O)cc(O)c1CC=C(C)C
IC50 (PANC-1 [1]): 26 µM

COc1c(Cl)c(C)c(Cl)c(O)c1C(=O)c1c(C=O)c(O)cc(O)c1CC=C(C)C [PESTALONE]
IC50 (PANC-1 [1]): 14 µM
